In patent US20240189307A1, “METHODS OF STABILIZING THE NEURONAL PROTEOME AGAINST COLLAPSE AND PROTECTING VASCULAR CELLS” (ALBERT EINSTEIN COLLEGE OF MEDICINE, priority 2021, published 2024):

Tested on: Tg mice (APPSwe; PS2N141I; TauP301L)
Experiment: Triple transgenic (Tg, TauPS2APP) mouse model of Alzheimer's disease-related proteotoxicity, oral daily CA
Format: in vivo
Description: FIG. 12. Chemical activation of CMA improves behavior and neuropathology in a mouse model of Alzheimer's disease-related proteotoxicity. (A) Schematic of regimen of CMA activator (CA) administration to TauPS2APP (Tg) mice. (B-D) Performance of Tg mice administered vehicle (Veh) or CMA activator (CA) in the novel object recognition test (B, left plot: % of time dedicated to the novel object; right plot: discrimination index), the elevated plus maze (C) and the forced swim test (D). (E) Clasping score in Tg mice +/− CA: time course of clasping score increase (left) and mean linear regression coefficient (right). (F) Performance of Tg mice +/− CA in horizontal grid test. (G-O) Immunostaining of immature amyloid plaques (MOAB2), mature amyloid depositions (6E10), β-sheet marker (Thioflavin S) and Threonine231-phosphorylated tau (pThr231 tau) in the dorsal hippocampus of Tg mice +/− CA. Montages of individual images from the scanning of whole brain slices are shown. Inset: Higher magnification of pThr231 tau staining. Scale bar: 200 μm. Quantification of images of montages of individual images from the scanning of whole brain slices of percentage of area positive and plaque size for MOAB2 (G, J), 6E10 (H, K) or Thioflavin S (I, L). Relationship between number of plaques and average plaque size for different markers of plaque maturity (ThS>6E10>MOAB2) […]. Quantification of percentage of area positive for pThr231 tau (N) and of the overlap between pThr231 tau staining and 6E10 staining (O). All quantifications (except clasping—E) were done at 12 months, in 4-6 mice per group. Data are mean±s.e.m. Comparisons were made using unpaired t-test (B-D, F, G-O), Two-way ANOVA test followed by Sidak's post-hoc analysis (E). *p<0.05, **p<0.005, ***p<0.0005.
FIG. 13. Effect of chemical activation of CMA in a mouse model of Alzheimer's disease-related proteotoxicity. (A-D) Quantification of size of plaques positive for MOAB2 (t7=3.181, p=0.0155) (A), 6E10 (B) or Thioflavin S (ThS) (C) and of T231-phosphorylated tau pathology (t8=2.382, p=0.0444) (D) in brain cortex from Tg mice administered Veh or CA for 4 months. (E) Summary heatmap highlighting the extent of pathology reduction upon CMA activation in cortex and dorsal hippocampus. * highlights significant difference between Veh and CA administered Tg mice. (F) Immunoblot for S202/T205-phosphorylated (AT8) tau in the brain of Tg mice treated with Veh or CA. Representative immunoblot (left) and densitometric quantification (t8=2.425, p=0.0415) (right). Values were normalized to ponceau and are expressed as folds of Veh treated mice. (G) Number of GFAP-positive astrocytes per area unit (t8=4.058, p=0.0036). (H-I) Representative images of immunostaining of inflammation (microglial marker: Iba1—Green), amyloid pathology (MOAB2—Magenta) and nuclear staining with DAPI (blue) in the dorsal hippocampus of Tg mice administered Veh or CA. Montages of individual images of the dorsal hippocampus from the scanning of whole brain slices are shown. Quantification of number of Iba1-positive microglial cells per area unit (t8=2.041, p=0.0755) (left) and mean cell size (t8=2.079, p=0.0713) (right) (H) and colocalization coefficient between microglia (Iba1) and amyloid plaques (MOAB2) (I) (Mann Whitney U=6, p=0.2571). Mean±s.e.m. and individual values are shown. Comparisons were made using unpaired t-test analysis. *: p<0.05, **: p<0.005.
Male wild-type mice (C57BL/6J) or transgenic for CaMKIIα-Cre (B6.Cg-Tg(Camk2α-cre)T29-1Stl/J, Jackson Laboratory), LAMP-2A^flox/flox (Schneider et al., 2014), Tau^P301L (line pR5), Tg (APP^Swe; PS2^N141I; Tau^P301L), PS19 (Tau^P301S) (Yoshiyama et al., 2007) and Atg7^f/f were used in the study. Conditional LAMP-2A deletion was generated by breeding LAMP-2A^flox/flox with the transgenic Cre mice of interest. […]

[1] = dorsal hippocampus, 30 mg/kg oral daily, 4 months
[2] = hippocampus and cortex, 30 mg/kg oral daily, 4 months

Compound: CC(=O)Nc1ccc(-c2cnc3cc(Cl)ccc3n2)cc1 [CA77.1]
- visual memory (novel object recognition test) (30 mg/kg oral daily for 4 months from 8 months of age): better visual memory
- anxiety- and depression-like behaviors (elevated plus maze, forced swim test) (30 mg/kg oral daily, 4 months): decreased anxiety- and depression-like behaviors
- clasping progression (30 mg/kg oral daily, 4 months): slower clasping progression
- number of amyloid deposits (30 mg/kg oral daily, 4 months): lower number of deposits depending on the deposit maturity
- performance in horizontal grid test (30 mg/kg oral daily, 4 months): increased performance in horizontal grid test
- S202/T205-phosphorylated (AT8) tau by immunoblot (brain, 30 mg/kg oral daily, 4 months): significant reduction of the mature phosphosite AT8
- association of glial cells with amyloid plaque-like deposit [1]: less association of glial cells with amyloid plaque-like deposit
- number of microglia and astrocytes [1]: lower number of microglia and astrocytes in the dorsal hippocampus
- T231 phosphorylated Tau levels [2]: reduced levels of the early T231 phosphorylated Tau
- area and size of amyloid plaques (MOAB2, 6E10, thioflavin S) [2]: reduced area and size of immature (MOAB2-positive) and mature (6E10 and thioflavin S-positive) amyloid plaques
